Experimental data taken from ChEMBL document CHEMBL2021894, “The Discovery of VX-745: A Novel and Selective p38α Kinase Inhibitor” (ACS Med Chem Lett, 2011).
Active and inactive are the calls of the source. The calls are words filed in the database; no cut-off is given here.

Experiments:
[1] = target: Mitogen-activated protein kinase 1 (Homo sapiens) (UniProt P28482); experiment: Inhibition of ERK2 using ATGPLSPGPFGRR as substrate at 100 uM by spectrophotometric enzyme-coupled assay
[2] = target: Dual specificity mitogen-activated protein kinase kinase 6 (Homo sapiens) (UniProt P52564); experiment: Inhibition of MKK6
Dual specificity mitogen-activated protein kinase kinase 6 (Homo sapiens), sequence (P52564 whole entry, canonical isoform): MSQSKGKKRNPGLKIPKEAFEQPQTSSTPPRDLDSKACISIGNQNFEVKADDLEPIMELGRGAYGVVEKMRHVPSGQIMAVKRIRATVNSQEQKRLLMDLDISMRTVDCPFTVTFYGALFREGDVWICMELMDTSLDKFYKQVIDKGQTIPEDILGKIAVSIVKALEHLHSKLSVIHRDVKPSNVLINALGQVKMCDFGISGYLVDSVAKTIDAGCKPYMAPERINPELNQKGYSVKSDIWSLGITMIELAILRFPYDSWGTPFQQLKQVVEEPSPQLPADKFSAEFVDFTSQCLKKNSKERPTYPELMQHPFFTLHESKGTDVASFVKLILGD

[3] = target: Casein kinase I isoform alpha (Homo sapiens) (UniProt P48729); experiment: Inhibition of CK1 at 2 uM
[4] = target: Fibroblast growth factor receptor 3 (Homo sapiens) (UniProt P22607); experiment: Inhibition of FGFR3 at 2 uM
[5] = target: Tyrosine-protein kinase Fyn (Homo sapiens) (UniProt P06241); experiment: Inhibition of Fyn at 2 uM
[6] = target: Mitogen-activated protein kinase 8 (Homo sapiens) (UniProt P45983); experiment: Inhibition of JNK1 at 2 uM
Mitogen-activated protein kinase 8 (Homo sapiens), sequence (P45983 whole entry): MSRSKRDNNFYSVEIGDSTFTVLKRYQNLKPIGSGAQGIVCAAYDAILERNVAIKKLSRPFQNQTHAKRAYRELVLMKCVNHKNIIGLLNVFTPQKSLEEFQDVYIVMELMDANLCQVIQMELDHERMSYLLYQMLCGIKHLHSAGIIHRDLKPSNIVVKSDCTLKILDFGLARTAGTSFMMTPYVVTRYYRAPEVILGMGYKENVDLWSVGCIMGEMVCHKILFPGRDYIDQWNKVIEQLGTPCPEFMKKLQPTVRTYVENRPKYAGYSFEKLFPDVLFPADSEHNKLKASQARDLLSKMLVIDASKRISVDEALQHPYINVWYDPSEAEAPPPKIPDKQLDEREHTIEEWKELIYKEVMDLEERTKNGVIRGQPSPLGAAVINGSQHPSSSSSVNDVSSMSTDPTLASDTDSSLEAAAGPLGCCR

[7] = target: Tyrosine-protein kinase Lck (Homo sapiens) (UniProt P06239); experiment: Inhibition of LCK at 2 uM
[8] = target: Dual specificity mitogen-activated protein kinase kinase 1 (Homo sapiens) (UniProt Q02750); experiment: Inhibition of Mek1 at 2 uM
[9] = target: Dual specificity mitogen-activated protein kinase kinase 6 (Homo sapiens) (UniProt P52564); experiment: Inhibition of MKK6 at 2 uM
[10] = target: Dual specificity mitogen-activated protein kinase kinase 2 (Homo sapiens) (UniProt P36507); experiment: Inhibition of MEK2 at 2 uM
[11] = target: Protein kinase C beta type (Homo sapiens) (UniProt P05771); experiment: Inhibition of PKCb2 at 2 uM
[12] = target: Rho-associated protein kinase 2 (Homo sapiens) (UniProt O75116); experiment: Inhibition of ROCK2 at 2 uM
Rho-associated protein kinase 2 (Homo sapiens), sequence (O75116 whole entry, looked up): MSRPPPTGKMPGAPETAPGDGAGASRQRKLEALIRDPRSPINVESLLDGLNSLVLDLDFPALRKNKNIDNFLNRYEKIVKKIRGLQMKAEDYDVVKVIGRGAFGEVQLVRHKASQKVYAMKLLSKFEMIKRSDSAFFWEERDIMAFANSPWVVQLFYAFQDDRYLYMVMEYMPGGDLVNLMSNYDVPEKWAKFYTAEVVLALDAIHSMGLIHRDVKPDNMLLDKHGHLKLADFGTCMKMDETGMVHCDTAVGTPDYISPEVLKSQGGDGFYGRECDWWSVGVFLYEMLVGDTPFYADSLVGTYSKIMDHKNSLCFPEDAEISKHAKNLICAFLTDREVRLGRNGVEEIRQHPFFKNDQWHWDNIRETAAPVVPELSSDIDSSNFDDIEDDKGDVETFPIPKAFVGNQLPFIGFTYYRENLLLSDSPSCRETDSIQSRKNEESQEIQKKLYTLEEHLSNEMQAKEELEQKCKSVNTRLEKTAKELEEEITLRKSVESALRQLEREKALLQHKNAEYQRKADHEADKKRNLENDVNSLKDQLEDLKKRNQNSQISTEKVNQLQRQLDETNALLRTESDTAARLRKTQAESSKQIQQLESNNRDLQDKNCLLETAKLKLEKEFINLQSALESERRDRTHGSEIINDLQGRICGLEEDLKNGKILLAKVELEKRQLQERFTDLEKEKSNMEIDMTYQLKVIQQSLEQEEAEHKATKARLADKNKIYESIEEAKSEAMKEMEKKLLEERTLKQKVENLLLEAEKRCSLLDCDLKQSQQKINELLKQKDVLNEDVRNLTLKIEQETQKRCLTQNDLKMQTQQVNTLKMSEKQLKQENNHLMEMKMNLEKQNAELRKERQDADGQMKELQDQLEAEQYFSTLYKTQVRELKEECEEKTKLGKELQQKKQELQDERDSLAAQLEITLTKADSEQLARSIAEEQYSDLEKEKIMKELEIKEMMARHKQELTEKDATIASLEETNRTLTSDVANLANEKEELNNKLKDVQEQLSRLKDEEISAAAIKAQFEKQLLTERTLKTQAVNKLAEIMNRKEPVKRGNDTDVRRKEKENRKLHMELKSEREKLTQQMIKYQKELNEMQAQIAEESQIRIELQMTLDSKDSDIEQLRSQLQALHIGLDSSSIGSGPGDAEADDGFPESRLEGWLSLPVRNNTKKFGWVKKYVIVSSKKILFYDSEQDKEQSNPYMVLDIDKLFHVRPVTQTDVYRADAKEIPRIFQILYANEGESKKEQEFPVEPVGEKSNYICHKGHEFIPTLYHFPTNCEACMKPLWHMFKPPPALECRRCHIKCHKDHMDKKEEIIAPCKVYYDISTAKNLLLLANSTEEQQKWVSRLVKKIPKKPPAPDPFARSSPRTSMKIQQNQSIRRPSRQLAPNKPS

[13] = Half life in Sprague-Dawley rat at 4.8 mg/kg, iv; type: ADME, organism-based; design: dose 4.8 mg/kg, route intravenous; settings: in vivo
[14] = Volume of distribution at steady state in Sprague-Dawley rat at 4.8 mg/kg, iv; type: ADME, organism-based; design: dose 4.8 mg/kg, route intravenous; settings: in vivo, read-out: Vdss
[15] = Clearance in Sprague-Dawley rat at 4.8 mg/kg, iv; type: ADME, organism-based; design: dose 4.8 mg/kg, route intravenous; settings: in vivo
[16] = Half life in BALB/c mouse at 2 mg/kg, iv; type: ADME, organism-based; design: dose 2 mg/kg, route intravenous; settings: in vivo
[17] = Volume of distribution at steady state in BALB/c mouse at 2 mg/kg, iv; type: ADME, organism-based; design: dose 2 mg/kg, route intravenous; settings: in vivo, read-out: Vdss
[18] = Clearance in BALB/c mouse at 2 mg/kg, iv; type: ADME, organism-based; design: dose 2 mg/kg, route intravenous; settings: in vivo
[19] = Half life in beagle dog at 13.8 mg/kg, iv; type: ADME, organism-based, Canis lupus familiaris; design: dose 13.8 mg/kg, route intravenous; settings: in vivo
[20] = Volume of distribution at steady state in beagle dog at 13.8 mg/kg, iv; type: ADME, organism-based, Canis lupus familiaris; design: dose 13.8 mg/kg, route intravenous; settings: in vivo, read-out: Vdss
[21] = Clearance in beagle dog at 13.8 mg/kg, iv; type: ADME, organism-based, Canis lupus familiaris; design: dose 13.8 mg/kg, route intravenous; settings: in vivo
[22] = AUC in Sprague-Dawley rat at 43 mg/kg, po; type: ADME, organism-based; design: dose 43 mg/kg, route oral; settings: plasma
[23] = Oral bioavailability in Sprague-Dawley rat at 43 mg/kg; type: ADME, organism-based; settings: in vivo
[24] = Half life in BALB/c mouse at 40 mg/kg, po; type: ADME, organism-based; design: dose 40 mg/kg, route oral; settings: in vivo
[25] = Oral bioavailability in BALB/c mouse at 40 mg/kg; type: ADME, organism-based; settings: in vivo
[26] = Half life in beagle dog at 33 mg/kg, po; type: ADME, organism-based, Canis lupus familiaris; design: dose 33 mg/kg, route oral; settings: in vivo
[27] = Cmax in beagle dog at 33 mg/kg, po; type: ADME, organism-based, Canis lupus familiaris; design: dose 33 mg/kg, route oral; settings: in vivo
[28] = tested on: Canis familiaris; experiment: AUC in beagle dog at 33 mg/kg, po; type: ADME, organism-based, Canis lupus familiaris, Plasma; design: dose 33 mg/kg, route oral; settings: in vivo
[29] = Induction of human cytochrome P450; type: ADME
[30] = target: Cytochrome P450 3A4 (Homo sapiens, UniProt P08684); experiment: Inhibition of human CYP3A4; type: ADME
[31] = target: Cytochrome P450 2D6 (Homo sapiens, UniProt P10635); experiment: Inhibition of human CYP2D6; type: ADME
[32] = target: Cytochrome P450 2C19 (Homo sapiens, UniProt P33261); experiment: Inhibition of human CYP2C19; type: ADME
[33] = target: Cytochrome P450 2C9 (Homo sapiens, UniProt P11712); experiment: Inhibition of human CYP2C9; type: ADME
Cytochrome P450 2C9, sequence (P11712 whole entry): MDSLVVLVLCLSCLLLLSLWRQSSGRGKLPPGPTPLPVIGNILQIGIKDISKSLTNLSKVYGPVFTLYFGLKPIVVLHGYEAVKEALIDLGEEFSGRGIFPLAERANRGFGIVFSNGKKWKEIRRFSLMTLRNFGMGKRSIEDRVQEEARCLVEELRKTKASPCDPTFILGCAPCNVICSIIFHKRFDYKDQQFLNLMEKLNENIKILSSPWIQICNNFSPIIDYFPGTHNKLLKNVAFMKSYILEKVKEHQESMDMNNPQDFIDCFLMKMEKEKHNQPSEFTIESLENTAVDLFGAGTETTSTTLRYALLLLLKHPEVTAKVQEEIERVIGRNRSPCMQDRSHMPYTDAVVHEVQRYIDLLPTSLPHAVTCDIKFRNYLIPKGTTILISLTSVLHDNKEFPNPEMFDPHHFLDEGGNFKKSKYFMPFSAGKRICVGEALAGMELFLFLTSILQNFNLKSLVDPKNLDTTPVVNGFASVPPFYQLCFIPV

[34] = Plasma protein binding in dog; type: ADME, cell-free, Canis lupus familiaris; settings: read-out: PPB (converted)
[35] = tested on: Mus musculus; experiment: Antiarthritic activity in complete Freund's adjuvant-immunized DBA/1J mouse assessed as inhibition of type 2 collagen-induced paw inflammation at 10 mg/kg, po bid measured on day 20; type: functional; settings: 480 h
[36] = tested on: Mus musculus; experiment: Antiarthritic activity in complete Freund's adjuvant-immunized DBA/1J mouse assessed as inhibition of type 2 collagen-induced bone and cartilage erosion at […], po bid measured on day 20; type: functional; settings: 480 h, dose 2.5 mg/kg
[37] = tested on: Mus musculus; experiment: Antiarthritic activity in complete Freund's adjuvant-immunized DBA/1J mouse assessed as inhibition of type 2 collagen-induced bone and cartilage erosion at 5 mg/kg, po bid measured on day 20; type: functional; settings: 480 h
[38] = tested on: Mus musculus; experiment: Antiarthritic activity in complete Freund's adjuvant-immunized DBA/1J mouse assessed as inhibition of type 2 collagen-induced bone and cartilage erosion at 10 mg/kg, po bid measured on day 20; type: functional; settings: 480 h
[39] = Inhibition of Gsk3 by filter binding assay
[40] = target: Mitogen-activated protein kinase 11 (Homo sapiens) (UniProt Q15759); settings: 100 uM
Mitogen-activated protein kinase 11 (Homo sapiens), sequence (Q15759 whole entry): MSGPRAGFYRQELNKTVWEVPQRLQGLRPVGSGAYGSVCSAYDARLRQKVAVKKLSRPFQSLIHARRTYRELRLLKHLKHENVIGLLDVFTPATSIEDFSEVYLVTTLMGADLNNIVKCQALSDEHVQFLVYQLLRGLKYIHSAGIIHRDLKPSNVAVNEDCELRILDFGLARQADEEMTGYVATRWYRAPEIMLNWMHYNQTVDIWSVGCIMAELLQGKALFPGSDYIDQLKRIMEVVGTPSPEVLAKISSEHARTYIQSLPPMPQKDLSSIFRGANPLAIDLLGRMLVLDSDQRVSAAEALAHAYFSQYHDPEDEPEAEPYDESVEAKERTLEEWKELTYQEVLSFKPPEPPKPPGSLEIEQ

[41] = target: Tyrosine-protein kinase receptor UFO (Homo sapiens) (UniProt P30530); settings: 2 uM
Description: Inhibition of Axl at 2 uM

[42] = target: Cyclin-dependent kinase 1 (Homo sapiens) (UniProt P06493); settings: 2 uM
Cyclin-dependent kinase 1 (Homo sapiens), sequence (P06493 whole entry, looked up): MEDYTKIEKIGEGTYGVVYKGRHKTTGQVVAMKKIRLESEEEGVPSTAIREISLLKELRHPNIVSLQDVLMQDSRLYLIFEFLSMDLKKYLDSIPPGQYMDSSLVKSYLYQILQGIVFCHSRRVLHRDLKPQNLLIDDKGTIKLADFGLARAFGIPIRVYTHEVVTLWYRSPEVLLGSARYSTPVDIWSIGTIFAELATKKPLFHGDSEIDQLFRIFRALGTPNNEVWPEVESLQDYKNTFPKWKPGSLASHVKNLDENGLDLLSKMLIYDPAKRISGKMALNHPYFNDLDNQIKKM
Description: Inhibition of CDK1 at 2 uM

[43] = target: Cyclin-dependent kinase 5 (Homo sapiens) (UniProt Q00535); settings: 2 uM
Cyclin-dependent kinase 5 (Homo sapiens), sequence (Q00535 whole entry, looked up): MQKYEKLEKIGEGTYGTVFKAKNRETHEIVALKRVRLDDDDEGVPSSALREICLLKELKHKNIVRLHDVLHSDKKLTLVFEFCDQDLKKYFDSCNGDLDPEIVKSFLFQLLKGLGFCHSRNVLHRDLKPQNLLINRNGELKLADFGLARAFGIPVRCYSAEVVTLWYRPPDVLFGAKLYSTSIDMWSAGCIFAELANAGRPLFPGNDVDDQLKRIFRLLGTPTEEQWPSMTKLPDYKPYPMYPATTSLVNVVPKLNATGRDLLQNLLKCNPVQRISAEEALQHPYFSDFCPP
Description: Inhibition of CDK5 at 2 uM

[44] = target: Ephrin type-B receptor 4 (Homo sapiens) (UniProt P54760); settings: 2 uM
Description: Inhibition of EphB4 at 2 uM

[45] = target: Tyrosine-protein kinase Fes/Fps (Homo sapiens) (UniProt P07332); settings: 2 uM
Tyrosine-protein kinase Fes/Fps (Homo sapiens), sequence (P07332 whole entry): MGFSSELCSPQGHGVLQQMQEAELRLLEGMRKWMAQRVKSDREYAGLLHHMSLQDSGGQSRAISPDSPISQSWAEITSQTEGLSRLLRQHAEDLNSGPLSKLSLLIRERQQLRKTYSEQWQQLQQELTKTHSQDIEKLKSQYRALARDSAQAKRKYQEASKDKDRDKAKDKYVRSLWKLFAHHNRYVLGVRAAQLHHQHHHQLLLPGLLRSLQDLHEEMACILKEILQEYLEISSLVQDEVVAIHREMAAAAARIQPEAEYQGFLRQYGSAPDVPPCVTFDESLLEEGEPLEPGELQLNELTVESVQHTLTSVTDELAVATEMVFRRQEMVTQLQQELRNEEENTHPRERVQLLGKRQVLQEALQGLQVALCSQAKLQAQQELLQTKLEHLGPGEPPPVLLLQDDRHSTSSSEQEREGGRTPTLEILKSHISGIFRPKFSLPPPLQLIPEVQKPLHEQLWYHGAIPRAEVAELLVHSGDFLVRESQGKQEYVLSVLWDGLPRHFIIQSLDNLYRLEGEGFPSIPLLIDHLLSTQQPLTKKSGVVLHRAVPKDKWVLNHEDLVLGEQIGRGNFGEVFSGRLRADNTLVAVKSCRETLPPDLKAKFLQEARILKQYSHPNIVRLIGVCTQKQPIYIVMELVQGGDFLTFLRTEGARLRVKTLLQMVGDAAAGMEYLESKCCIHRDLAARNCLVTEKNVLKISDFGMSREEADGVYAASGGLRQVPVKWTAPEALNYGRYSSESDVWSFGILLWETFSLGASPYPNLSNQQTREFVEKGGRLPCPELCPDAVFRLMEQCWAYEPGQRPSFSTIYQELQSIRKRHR
Description: Inhibition of FES at 2 uM

[46] = target: Inhibitor of nuclear factor kappa-B kinase subunit alpha (Homo sapiens) (UniProt O15111); settings: 2 uM
Description: Inhibition of IKKa at 2 uM

[47] = target: Ribosomal protein S6 kinase alpha-5 (Homo sapiens) (UniProt O75582); settings: 2 uM
Description: Inhibition of MSK1 at 2 uM

[48] = target: Serine/threonine-protein kinase 3 (Homo sapiens) (UniProt Q13188); settings: 2 uM
Description: Inhibition of Mst2 at 2 uM

[49] = target: Mitogen-activated protein kinase 11 (Homo sapiens) (UniProt Q15759); settings: 2 uM
Description: Inhibition of p38beta at 2 uM

[50] = target: Serine/threonine-protein kinase PAK 2 (Homo sapiens) (UniProt Q13177); settings: 2 uM
Serine/threonine-protein kinase PAK 2 (Homo sapiens), sequence (Q13177 whole entry): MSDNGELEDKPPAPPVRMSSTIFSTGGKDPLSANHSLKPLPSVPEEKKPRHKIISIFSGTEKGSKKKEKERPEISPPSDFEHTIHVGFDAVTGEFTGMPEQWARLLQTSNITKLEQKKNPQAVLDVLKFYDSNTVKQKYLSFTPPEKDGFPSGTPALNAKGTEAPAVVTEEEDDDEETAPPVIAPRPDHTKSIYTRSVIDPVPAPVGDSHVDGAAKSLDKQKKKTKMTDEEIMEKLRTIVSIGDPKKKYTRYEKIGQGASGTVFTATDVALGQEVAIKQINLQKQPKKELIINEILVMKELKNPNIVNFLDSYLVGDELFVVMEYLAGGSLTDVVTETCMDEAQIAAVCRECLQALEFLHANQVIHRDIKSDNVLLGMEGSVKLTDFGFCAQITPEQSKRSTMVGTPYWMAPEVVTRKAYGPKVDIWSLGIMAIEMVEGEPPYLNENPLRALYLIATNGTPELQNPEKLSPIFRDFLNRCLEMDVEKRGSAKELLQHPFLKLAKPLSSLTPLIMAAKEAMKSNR
Description: Inhibition of PAK2 at 2 uM

[51] = target: Protein kinase C theta type (Homo sapiens) (UniProt Q04759); settings: 2 uM
Description: Inhibition of PKCtheta at 2 uM

[52] = target: RAF proto-oncogene serine/threonine-protein kinase (Homo sapiens) (UniProt P04049); settings: 2 uM
Description: Inhibition of RAFc at 2 uM

[53] = target: Angiopoietin-1 receptor (Homo sapiens) (UniProt Q02763); settings: 2 uM
Description: Inhibition of Tie2 at 2 uM

O=c1ncn2nc(Sc3ccc(F)cc3F)ccc2c1-c1c(Cl)cccc1Cl [NEFLAMAPIMOD]
inhibition [1]: inactive | inhibition [2]: Active | inhibition [3]: 1% | inhibition [4]: 20% | inhibition [5]: 6% | inhibition [6]: 10% | inhibition [7]: 20% | inhibition [8]: 5% | inhibition [9]: 95% | inhibition [10]: 14% | inhibition [11]: 5% | inhibition [12]: 8% | half-life [13]: 1.9 h | Vd [14]: 3.9 L/kg | clearance [15]: 63 mL/min/kg | half-life [16]: 2.6 h | Vd [17]: 2.2 L/kg | clearance [18]: 21 mL/min/kg | half-life [19]: 1.5 h | Vd [20]: 2.3 L/kg | clearance [21]: 39 mL/min/kg | AUC [22]: 6300 ng·h/mL | bioavailability [23]: 56% | half-life [24]: 4.5 h | bioavailability [25]: 87% | half-life [26]: 4.5 h | Cmax [27]: 1370 ng/mL | AUC [28]: 4340 ng·h/mL | Activity [29]: Not Active | IC50 [30]: > 40 µM | IC50 [31]: > 40 µM | IC50 [32]: > 40 µM | IC50 [33]: > 40 µM | fraction unbound [34]: 0.08 | inhibition in vivo at 10 mg/kg [35]: 44% | inhibition in vivo at […] [36]: 35% | inhibition in vivo at 5 mg/kg [37]: 32% | inhibition in vivo at 10 mg/kg [38]: 39% | IC50 [39]: > 5 µM | inhibition [40]: inactive | inhibition [41]: 0% | inhibition [42]: 0% | inhibition [43]: 0% | inhibition [44]: 16% | inhibition [45]: 7% | inhibition [46]: 0% | inhibition [47]: 0% | inhibition [48]: 0% | inhibition [49]: 84% | inhibition [50]: 0% | inhibition [51]: 0% | inhibition [52]: 0% | inhibition [53]: 0%
